Source: PMC10133546, “Simultaneous determination of multiple components in rat plasma by UHPLC-sMRM for pharmacokinetic studies after oral administration of Qingjin Yiqi Granules” (Frontiers in Pharmacology, 2023)
Where two headings read alike, the source gives them in different places.

Experiments:
[1] = Pharmacokinetic study in rat plasma after oral administration of QJYQ (UHPLC-sMRM); assay type: in vivo, Sprague-Dawley rats
Protocol: Exion LC AD tandem Blueline 3500 triple quadrupole mass spectrometer (AB SCIEX, Framingham, MA, United States) was used to thirty-three compounds in rat plasma. […] The whole detailed parameters of sMRM were obtained in Supplementary Table S1.
Rat plasma (100 μL) was mixed with 10% formic acid (10 μL) and vortexed for 1 min at room temperature. ISs (10 μL) and methanol/acetonitrile (1/1, v/v) (400 μL) were added and vortexed for 5 min, then centrifuged for 10 min at 14,000 rpm and 4°C. The transported supernatant was condensed to dryness under the flow of nitrogen gas. The dried residue was reconstituted with 70% methanol (100 μL) by vortex-mixing for 5 min and centrifuging at 14,000 rpm for 10 min. Last, 2 μL of the solution were injected into the UHPLC-sMRM system.
The pharmacokinetic study was approved by the Animal Ethics Committee of Tianjin University of Traditional Chinese Medicine (TCM-LAEC2021228). Ten male Sprague-Dawley rats (weight 220–240 g) was kept at the animal center of Tianjin University of Traditional Chinese Medicine (Tianjin, China). […] The sample was transferred right away following a 10 min period of centrifugation at 7000 rpm and 4°C. All plasma samples were frozen and stored at −80°C.
All the pharmacokinetic parameters were calculated using the DAS 1.0 software (Drug and Statistics 1.0, Medical College of Wannan, China). Pharmacokinetic parameters include the maximum drug concentration in plasma (Cmax), the time to achieve maximum drug concentration (Tmax), the area under the plasma concentration-time curve (AUC), elimination half-life (T1/2), and mean residence time (MRT). The pharmacokinetic parameters were computed using the non-compartmental model. All data are expressed as mean ± standard deviation (SD). GraphPad Prism 8.0 (GraphPad Software Inc., La Jolla, CA, United States) software was used to draw the drug-time curve.

[2] = Stability of the working solution (4°C for 1 month); assay type: physicochemical
Protocol: The stability of analytes in plasma was evaluated by analyzing 4 QC samples (n = 6). The stability was included auto-sampler stability (keeping the sample in auto-sampler for 24 h), three times of freeze-thaw cycles stability (freezing cycle at −80°C, thawing cycle at room temperature), room temperature stability (storing samples at room temperature for 24 h), long-term stability (storing samples at −80°C for 1 month). […] Accompanying curve was established when testing the sample, calculate and compare the ratio of the actual measured concentration to the theoretical concentration, expressed in accuracy and RSD.

[3] = Stability of analytes in rat plasma (auto-sampler, freeze-thaw, room temperature, long-term); conditions: for Autosampler for 24 h Accuracy (%): autosampler 24 h; for Room temperature for 24 h Accuracy (%): room temperature 24 h; for Freeze thaw cycles Accuracy (%): three freeze-thaw cycles; for −80°C for 1month Accuracy (%): −80°C 1 month
[4] = rat plasma, oral QJYQ 3.15 g/kg, n = 8, mean ± SD
[5] = male, Sprague-Dawley, rat, in vivo, po, 3.15 g/kg

Row | AUC(0-t) ([1]; rat, in vivo, po, 3.15 g/kg) | AUC(0-∞) ([1]; rat, in vivo, po, 3.15 g/kg) | Cmax ([1]; rat, in vivo, po, 3.15 g/kg) | MRT (0-∞) ([1]; rat, in vivo, po, 3.15 g/kg) | Freeze thaw cycles Accuracy (%) ([3]; 12.5 ng/mL) | Room temperature for 24 h Accuracy (%) ([3]; 500 ng/mL) | Freeze thaw cycles Accuracy (%) ([3]; 500 ng/mL) | Compound | Working solution Accuracy (%) ([2]; 12.5 ng/mL) | Working solution Accuracy (%) ([2]; 100 ng/mL) | Working solution Accuracy (%) ([2]; 500 ng/mL) | Autosampler for 24 h Accuracy (%) ([3]; 12.5 ng/mL) | Room temperature for 24 h Accuracy (%) ([3]; 12.5 ng/mL) | −80°C for 1month Accuracy (%) ([3]; 12.5 ng/mL) | Autosampler for 24 h Accuracy (%) ([3]; 100 ng/mL) | Room temperature for 24 h Accuracy (%) ([3]; 100 ng/mL) | Freeze thaw cycles Accuracy (%) ([3]; 100 ng/mL) | −80°C for 1month Accuracy (%) ([3]; 100 ng/mL) | Autosampler for 24 h Accuracy (%) ([3]; 500 ng/mL) | −80°C for 1month Accuracy (%) ([3]; 500 ng/mL) | Working solution Accuracy (%) ([2]; 1.56 ng/mL) | other results
1 | 618.13 ± 161.10 ng·h/mL | 669.34 ± 164.70 ng·h/mL | 135.83 ± 52.28 ng/mL | 7.95 ± 4.85 h | 93.8% | 104.0% | 88.5% | COC(=O)C1=CO[C@@H](O[C@@H]2O[C@H](CO)[C@@H](O)[C@H](O)[C@H]2O)[C@H]2[C@@H]1C(=O)C[C@@H]2C [verbenalin] | 83.3% | 86.2% | 96.4% | 84.9% | 104.0% | 89.1% | 89.7% | 91.2% | 87.8% | 95.7% | 88.3% | 104.0% | – | MRT(0-t) ([1]; rat, in vivo, po, 3.15 g/kg): 4.85 ± 0.77 h; T1/2 ([1]; rat, in vivo, po, 3.15 g/kg): 8.37 ± 2.80 h; Tmax ([1]; rat, in vivo, po, 3.15 g/kg): 1.37 ± 0.80 h; Working solution Accuracy (%) ([2]; 50 ng/mL): 89.5%; Autosampler for 24 h Accuracy (%) ([3]; 50 ng/mL): 92.5%; Room temperature for 24 h Accuracy (%) ([3]; 50 ng/mL): 88.9%
2 | 14603.11 ± 7523.95 ng·h/mL | 15028.42 ± 7667.50 ng·h/mL | 167.50 ± 108.49 ng/mL | 8.62 ± 1.65 h | 85.6% | 104.0% | 88.3% | O=C(O)[C@H]1O[C@@H](Oc2cc(O)c3c(=O)cc(-c4ccc(O)cc4)oc3c2)[C@H](O)[C@@H](O)[C@@H]1O [apigenin-7-O-glucuronide] | 112.0% | 88.5% | 93.2% | 93.2% | 92.2% | 86.0% | 94.1% | 90.4% | 86.4% | 85.0% | 85.5% | 108.0% | 83.6% | MRT ([1]; rat, in vivo, po, 3.15 g/kg): greater than 8 h; MRT(0-t) ([1]; rat, in vivo, po, 3.15 g/kg): 8.39 ± 1.62 h; T1/2 ([1]; rat, in vivo, po, 3.15 g/kg): 4.17 ± 1.51 h; Tmax ([1]; rat, in vivo, po, 3.15 g/kg): 4.65 ± 2.79 h; Autosampler for 24 h Accuracy (%) ([3]; 1.56 ng/mL): 103.0%; Room temperature for 24 h Accuracy (%) ([3]; 1.56 ng/mL): 114.0%; Freeze thaw cycles Accuracy (%) ([3]; 1.56 ng/mL): 109.0%; −80°C for 1month Accuracy (%) ([3]; 1.56 ng/mL): 104.0%
3 | – | – | – | – | 100.0% | 94.3% | 96.9% | O=C(/C=C/c1ccc(O)c(O)c1)O[C@@H]1C[C@](O)(C(=O)O)C[C@@H](O)[C@H]1O [chlorogenic acid] | – | – | – | 94.6% | 97.3% | 98.3% | 96.9% | 105.0% | 95.5% | – | 85.5% | 94.3% | – | detection in rat plasma ([1]; rat plasma after oral QJYQ 3.15 g/kg): not detected; Autosampler for 24 h Accuracy (%) ([3]; 50 ng/mL): 97.5%; Room temperature for 24 h Accuracy (%) ([3]; 50 ng/mL): 106.0%; −80°C for 1month Accuracy (%) ([3]; 50 ng/mL): 115.0%
4 | 86.98 ± 6.62 ng·h/mL | 86.99 ± 6.62 ng·h/mL | 26.77 ± 7.87 ng/mL | 6.28 ± 0.91 h | – | – | – | COc1cc(/C=C/C(=O)O)cc(OC)c1O [sinapic acid] | 90.2% | 94.2% | 87.0% | – | – | – | – | – | – | – | – | – | 100.0% | MRT(0-t) ([1]; rat, in vivo, po, 3.15 g/kg): 6.28 ± 0.91 h; T1/2 ([1]; rat, in vivo, po, 3.15 g/kg): 2.20 ± 0.13 h

Row | Compound | AUC(0-t) ([1]; rat, in vivo, po, 3.15 g/kg) | AUC(0-∞) ([1]; rat, in vivo, po, 3.15 g/kg) | Cmax ([1]; rat, in vivo, po, 3.15 g/kg) | MRT (0-∞) ([1]; rat, in vivo, po, 3.15 g/kg) | Freeze thaw cycles Accuracy (%) ([3]; 12.5 ng/mL) | Room temperature for 24 h Accuracy (%) ([3]; 500 ng/mL) | Freeze thaw cycles Accuracy (%) ([3]; 500 ng/mL) | Working solution Accuracy (%) ([2]; 12.5 ng/mL) | Working solution Accuracy (%) ([2]; 100 ng/mL) | Working solution Accuracy (%) ([2]; 500 ng/mL) | Autosampler for 24 h Accuracy (%) ([3]; 12.5 ng/mL) | Room temperature for 24 h Accuracy (%) ([3]; 12.5 ng/mL) | −80°C for 1month Accuracy (%) ([3]; 12.5 ng/mL) | Autosampler for 24 h Accuracy (%) ([3]; 100 ng/mL) | Room temperature for 24 h Accuracy (%) ([3]; 100 ng/mL) | Freeze thaw cycles Accuracy (%) ([3]; 100 ng/mL) | −80°C for 1month Accuracy (%) ([3]; 100 ng/mL) | Autosampler for 24 h Accuracy (%) ([3]; 500 ng/mL) | −80°C for 1month Accuracy (%) ([3]; 500 ng/mL) | Working solution Accuracy (%) ([2]; 1.56 ng/mL) | other results
5 | COc1cc(/C=C/C(=O)O)ccc1O [ferulic acid] | – | – | – | – | 96.0% | – | – | 87.7% | 88.3% | 96.7% | 84.5% | 104.0% | 115.0% | 91.5% | 86.7% | 115.0% | 95.9% | 93.6% | 107.0% | – | MRT ([1]; rat plasma, oral QJYQ 3.15 g/kg, MRT type not specified): greater than 8 h; AUC(0-t) [1, 4]: 173.23 ± 5.66 ng·h/mL; AUC(0-∞) [1, 4]: 176.72 ± 28.57 ng·h/mL; Cmax [1, 4]: 51.71 ± 10.68 ng/mL; MRT (0-∞) [1, 4]: 8.43 ± 0.53 h; MRT(0-t) [1, 4]: 8.40 ± 0.20 h; T1/2 [1, 4]: 2.12 ± 0.07 h; Working solution Accuracy (%) ([2]; 50 ng/mL): 96.8%; Autosampler for 24 h Accuracy (%) ([3]; 50 ng/mL): 86.9%; Room temperature for 24 h Accuracy (%) ([3]; 50 ng/mL): 96.8%; Freeze thaw cycles Accuracy (%) ([3]; 50 ng/mL): 98.3%; −80°C for 1month Accuracy (%) ([3]; 50 ng/mL): 90.9%
6 | O=C1C[C@@H](c2ccc(O[C@@H]3O[C@H](CO)[C@@H](O)[C@H](O)[C@H]3O)cc2)Oc2cc(O)ccc21 [liquiritin] | – | – | – | – | – | 89.3% | 87.0% | 94.1% | 100.0% | 86.6% | 108.0% | 94.4% | 94.1% | 94.1% | 90.6% | 85.8% | 103.0% | 91.2% | 108.0% | 99.4% | AUC(0-inf) [1, 5]: 16.4 ± 5.06 ng·h/mL; AUC(0-t) [1, 5]: 16.3 ± 5.11 ng·h/mL; Cmax [1, 5]: 7.08 ± 2.25 ng/mL; MRT inf [1, 5]: 6.8 ± 1.19 h; MRT last [1, 5]: 6.4 ± 0.98 h; Tmax ([1]; male, Sprague-Dawley, rat, in vivo, po, 3.15 g/kg, Tmax): 0.52 ± 0.1 h; T1/2 [1, 4]: 4.30 ± 3.09 h; Autosampler for 24 h Accuracy (%) ([3]; 1.56 ng/mL): 84.0%; Room temperature for 24 h Accuracy (%) ([3]; 1.56 ng/mL): 111.0%; Freeze thaw cycles Accuracy (%) ([3]; 1.56 ng/mL): 110.0%
7 | O=C(O)c1ccc(O)c(O)c1 [protocatechuic acid] | – | – | – | – | – | 85.3% | 89.0% | 104.0% | 92.6% | 88.9% | 86.0% | 91.0% | 114.0% | 98.5% | 106.0% | 90.0% | 100.0% | 85.2% | 91.2% | 82.3% | Tmax ([1]; male, Sprague-Dawley, rat, plasma, po, 3.15 g/kg, rat plasma, oral QJYQ 3.15 g/kg, n = 8, mean ± SD, read-out: Tmax): < 0.5 h; half-life ([1]; male, Sprague-Dawley, rat plasma, oral QJYQ 3.15 g/kg, n = 8, mean ± SD): 2.33 ± 0.52 h; AUC(0-t) ([1]; male, Sprague-Dawley, rat plasma, oral QJYQ 3.15 g/kg, n = 8, mean ± SD, read-out: AUC(0-t)): 40.8 ± 10.9 ng·h/mL; AUC(0-inf) ([1]; male, Sprague-Dawley, rat plasma, oral QJYQ 3.15 g/kg, n = 8, mean ± SD, read-out: AUC(0-∞)): 40.9 ± 17.3 ng·h/mL; Cmax ([1]; male, Sprague-Dawley, rat plasma, oral QJYQ 3.15 g/kg, n = 8, mean ± SD, read-out: Cmax): 6.79 ± 4.35 ng/mL; MRT inf ([1]; male, Sprague-Dawley, rat plasma, oral QJYQ 3.15 g/kg, n = 8, mean ± SD, read-out: MRT (0-∞)): 5.32 ± 1.53 h; MRT last ([1]; male, Sprague-Dawley, rat plasma, oral QJYQ 3.15 g/kg, n = 8, mean ± SD, read-out: MRT(0-t)): 5.3 ± 1.02 h; Autosampler for 24 h Accuracy (%) ([3]; 1.56 ng/mL): 103.0%; Room temperature for 24 h Accuracy (%) ([3]; 1.56 ng/mL): 110.0%; Freeze thaw cycles Accuracy (%) ([3]; 1.56 ng/mL): 103.0%; −80°C for 1month Accuracy (%) ([3]; 1.56 ng/mL): 80.4%
